Patent US11505532B2, “SSAO inhibitor” (SHANDONG DANHONG PHARMACEUTICAL CO., LTD., priority 2017, dated 2022)

Columns and labels:
[1] = Distribution of compounds in liver and blood of CD-1 mice; type: in vivo; conditions: single oral dose; for Liver Concentration (@1.0 hour) / Plasma Concentration (@1.0 hour): 1 hour after administration; for Liver Concentration/Plasma Concentration (@1.0 hour) / Liver Concentration/Plasma Concentration (@4.0 hour): ratio; for Liver Concentration (@4.0 hour) / Plasma Concentration (@4.0 hour): 4 hours after administration
Description: Experimental purpose: distribution of compounds in liver and blood of CD-1 mice was tested;
CD-1 Mice (male, 25-35 g, 6-9 weeks old, Shanghai Slack);
Experimental procedure: after oral administration, the drug was distributed in the liver and blood of rodents, candidate compounds in the experiment were formulated into a clear solution to be administered to mice in a single oral dose. The oral solvent was a certain proportion of an aqueous solution of hydroxypropyl β-cyclodextrin or a physiological saline solution. The concentration of the drug in the liver and blood was measured at 1 hour and 4 hours after administration.

[2] = molecular target: hERG potassium ion channel (Homo sapiens (Human), UniProt Q12809); experiment: Inhibition test of hERG potassium ion channel (automatic patch clamp, CHO-hERG cells); type: cell-based; conditions: conclusion in words
Description: The effect of the to-be-tested compound on the potassium ion channel of hERG was detected by a fully automatic patch clamp method.
The cells stably expressing hERG potassium channel used in the experiment were obtained from CHO-hERE of Aviva Biosciences, and CHO-hERG was cultured in 5% CO2 at 37° C.
CHO-hERG cells prepared for the experiment were cultured for at least two days, and the cell density reached 75% or more. Prior to the start of the experiment, cells were digested with TrypLE and then resuspended in extracellular fluid to collect the cells.
Extracellular fluids need to be prepared once a month. The intracellular fluid need to be subpackaged and frozen at −20° C.
The to-be-tested compound and the positive control Amitriptyline were dissolved in DMSO to a certain concentration of the stock solution, and then diluted according to different gradients, and finally added to the extracellular fluid in a certain ratio, and diluted to a concentration to be measured. Visual inspection was performed to see if there was any precipitation before the start of the experiment. Finally, the concentration of DMSO in the to-be-tested solution and the positive control Amitriptyline should not exceed 0.3%. […]
In each complete current record, based on the percentage of peak current in the negative control, the percent inhibition of the concentration of each compound can be calculated. […]

VAP-1/SSAO [3] = molecular target: T1, VAP-1/SSAO (Homo sapiens (Human), UniProt Q16853); experiment: Human VAP-1 enzyme activity assay (Amplex Red Monoamine Oxidase kit); type: biochemical; conditions: 10 nM VAP-1 enzyme, 30 min preincubation, benzylamine substrate; read-out: Human Recombinant VAP-1/SSAO Enzyme Inhibitory Activity IC50
Description: Human VAP-1 Enzyme Activity Assay:
The inhibition of the sample on VAP-1 enzyme activity was measured by using an Amplex® Red Monoamine Oxidase kit (Invitrogen #A12214). 100 nL of the gradiently-diluted to-be-tested compound (solvent DMSO) was added to a 384-well plate. 25 μL of 10 nM VAP-1 enzyme solution was added and incubated for 30 minutes at room temperature. A substrate mixture of VAP-1 enzyme (200 μM Amplex Red, 1 U/mL HRP, 1 mM Benzylamine) was added and incubated for 60 minutes at room temperature. After the incubation, the fluorescent signal was read with a microplate reader Envision (excitation light wavelength 530-560 nm, emission light wavelength 590 nm). The fluorescence signal value after the background signal was removed was analyzed by Prism software, and the IC50 of the sample against the VAP-1 enzyme was calculated.

VAP-1/SSAO [4] = molecular target: T1, VAP-1/SSAO; experiment: VAP-1 cell activity assay (HUVEC or CHO cells transfected with VAP-1/pCDNA(3.1) plasmid, Amplex Red); type: cell-based; conditions: HUVEC or CHO cells transfected with VAP-1 plasmid; read-out: VAP-1/SSAO Cellular Inhibitory Activity IC50
Description: The inhibition of the sample on VAP-1 cell activity was measured by using an Amplex® Red Monoamine Oxidase kit (Invitrogen #A12214).
The cultured HUVEC or CHO cells were plated into a 6-well plate at a density of 0.8 M/well, placed in a 37° C., 5% CO2 incubator for incubation for 24 hours, and then the cells was transferred with a Lipo2000 reagent and a VAP-1/pCDNA (3.1) plasmid, and liquid was changed for the cells after 5 hours (Lipo2000 was toxic to the cells); after 24 hours, the cells were digested and plated into 384-well plates with a density of 25 μl, 10000 cells/well, and liquid was replaced with medium without FBS for the cells after 6-7 hours, and the cell plates were incubated overnight at 37° C. in a 5% CO2 incubator.
1) Dilution of the compound: serial dilution in 4× gradient was carried out with 100% DMSO, 10 points were diluted, the starting concentration of the to-be-tested compound was 0.5 mM (final concentration was 1) μM); 100 nl of compound solution was transferred to a 384-well cell assay plate with ECHO. […]
5) The reaction was carried out in the dark at room temperature for 60 minutes, and the fluorescence value was measured by Envision: the excitation wave was 535 nm, and the emission wave was 590 nm. […]
7) The data were analyzed with Prism. The IC50 of the sample against VAP-1 cells was calculated.

[5] = system: CCl4-induced chronic liver fibrosis male C57BL/6 model; experiment: Oral CCl4-induced chronic liver fibrosis model; type: in vivo, C57BL/6 mice; conditions: oral daily for 28 days, superior to PXS-4728A in the same dosage
Description: The therapeutic effect of compounds on an oral CCl4-induced chronic liver fibrosis male C57BL/6 model was tested.
Male C57BL/6 mice, 7-8 weeks old;
Experimental method: Male C57BL/6 mice were orally administered from the day CCl4 was put for modeling, and administered daily. Continuous administration was conducted for 28 days. The animals were fasted for at least 6 hours on the next day after the last administration Animal weight was measured during euthanasia and all animals were euthanized under the guidance of the KCl Animal Euthanasia SOP. Non-anticoagulant venous blood of mice was collected from the ocular venous plexus. The whole blood was allowed to stand at room temperature for 30 minutes, and centrifuged at 5000 rpm for 5 minutes, and the serum was separated and placed in a 1.5 ml EP tube and stored at −80° C. After the whole body of the animal was perfused with hypothermic saline, the liver was taken and subjected to tissue gross image acquisition. The left lobe of the liver was divided into 4 equal parts and put into 4 tissue cryotubes for liquid nitrogen freezing, and then transferred to −80° C. for storage. The rest of the liver tissue was fixed in 10% neutral formalin fixative. […] HE staining was subjected to double-blind score by two pathological readers, and the area of hepatic fibrosis was analyzed for sirius-red stained sections by digital pathology.

hERG potassium ion channel, sequence (Q12809 whole entry): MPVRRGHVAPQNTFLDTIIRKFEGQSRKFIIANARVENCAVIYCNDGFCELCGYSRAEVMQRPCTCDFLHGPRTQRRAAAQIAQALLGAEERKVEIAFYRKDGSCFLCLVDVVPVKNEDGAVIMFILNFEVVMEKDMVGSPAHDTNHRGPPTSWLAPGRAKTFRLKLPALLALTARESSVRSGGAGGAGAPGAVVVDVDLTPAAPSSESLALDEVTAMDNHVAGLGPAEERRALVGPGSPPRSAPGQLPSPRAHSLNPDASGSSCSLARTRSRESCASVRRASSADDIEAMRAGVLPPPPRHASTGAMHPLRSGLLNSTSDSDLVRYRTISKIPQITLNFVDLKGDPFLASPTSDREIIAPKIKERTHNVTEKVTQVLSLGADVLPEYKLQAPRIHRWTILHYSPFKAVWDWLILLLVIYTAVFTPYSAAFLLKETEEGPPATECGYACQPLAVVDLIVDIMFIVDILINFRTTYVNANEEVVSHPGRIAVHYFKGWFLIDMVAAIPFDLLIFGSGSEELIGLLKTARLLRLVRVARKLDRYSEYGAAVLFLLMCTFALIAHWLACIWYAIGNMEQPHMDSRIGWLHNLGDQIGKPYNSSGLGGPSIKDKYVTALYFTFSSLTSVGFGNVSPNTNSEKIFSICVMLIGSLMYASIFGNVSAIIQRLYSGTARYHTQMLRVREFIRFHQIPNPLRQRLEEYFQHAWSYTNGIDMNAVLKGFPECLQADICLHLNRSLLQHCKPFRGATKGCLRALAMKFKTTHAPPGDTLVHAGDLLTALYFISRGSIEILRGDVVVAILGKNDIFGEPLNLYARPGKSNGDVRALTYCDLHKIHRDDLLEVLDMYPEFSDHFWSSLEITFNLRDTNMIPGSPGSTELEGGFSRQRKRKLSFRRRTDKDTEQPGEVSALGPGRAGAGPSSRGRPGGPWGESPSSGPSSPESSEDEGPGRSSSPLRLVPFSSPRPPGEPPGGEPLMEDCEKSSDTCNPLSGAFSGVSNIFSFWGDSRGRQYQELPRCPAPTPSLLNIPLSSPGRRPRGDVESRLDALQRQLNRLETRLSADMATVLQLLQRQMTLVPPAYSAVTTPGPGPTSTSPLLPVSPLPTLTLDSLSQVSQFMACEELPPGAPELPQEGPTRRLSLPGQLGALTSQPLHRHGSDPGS
T1 sequence (Q16853 whole entry): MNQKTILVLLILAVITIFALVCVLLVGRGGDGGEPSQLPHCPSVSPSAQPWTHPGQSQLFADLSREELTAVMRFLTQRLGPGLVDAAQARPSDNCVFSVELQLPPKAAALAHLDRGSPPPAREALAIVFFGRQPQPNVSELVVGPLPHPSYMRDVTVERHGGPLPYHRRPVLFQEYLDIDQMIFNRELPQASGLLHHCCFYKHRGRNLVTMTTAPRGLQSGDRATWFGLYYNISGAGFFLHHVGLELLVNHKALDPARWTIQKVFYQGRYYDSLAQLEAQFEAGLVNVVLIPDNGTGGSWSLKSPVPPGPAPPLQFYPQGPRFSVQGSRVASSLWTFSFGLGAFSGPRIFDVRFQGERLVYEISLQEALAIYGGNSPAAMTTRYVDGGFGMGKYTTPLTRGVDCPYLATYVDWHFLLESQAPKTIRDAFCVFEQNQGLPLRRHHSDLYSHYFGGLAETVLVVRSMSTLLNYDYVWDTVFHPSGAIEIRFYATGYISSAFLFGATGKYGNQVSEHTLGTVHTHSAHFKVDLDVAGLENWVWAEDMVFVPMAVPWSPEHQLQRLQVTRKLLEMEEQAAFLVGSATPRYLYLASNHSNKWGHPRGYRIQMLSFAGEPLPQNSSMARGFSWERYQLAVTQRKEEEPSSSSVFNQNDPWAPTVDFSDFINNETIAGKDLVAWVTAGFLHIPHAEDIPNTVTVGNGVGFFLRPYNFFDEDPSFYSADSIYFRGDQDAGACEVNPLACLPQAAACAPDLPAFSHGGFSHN

## CC(C)(C)NC(=O)c1ccc(OC/C(=C/F)CN)cc1.Cl [PXS-4728A, reference compound]
[1]
  Liver Concentration (@1.0 hour): 13140
  Plasma Concentration (@1.0 hour): 1470
  Liver Concentration/Plasma Concentration (@1.0 hour): 10
  Liver Concentration (@4.0 hour): 2120
  Plasma Concentration (@4.0 hour): 154
  Liver Concentration/Plasma Concentration (@4.0 hour): 14

## Cc1noc(-c2ccc(OC/C(=C/F)CN)cc2)n1.Cl [WX008]
[2]
  inhibition of hERG potassium current: weak inhibition

## Cn1nc(-c2ccc(OC/C(=C/F)CN)cc2F)nc1C1CC1 [WX098]
VAP-1/SSAO [3]
  IC50: 1.8 nM
VAP-1/SSAO [4]
  IC50: 0.2 nM

## Cl.Cn1nc(-c2ccc(OC/C(=C/F)CN)cc2)nc1C(F)F [WX126]
[1]
  Liver Concentration (@1.0 hour): 13520
  Plasma Concentration (@1.0 hour): 934
  Liver Concentration/Plasma Concentration (@1.0 hour): 15
  Liver Concentration (@4.0 hour): 3364
  Plasma Concentration (@4.0 hour): 190
  Liver Concentration/Plasma Concentration (@4.0 hour): 17
[5]
  effect on liver fibrosis (Sirius-Red staining): obvious improvement effect
  effect on liver injury (liver injury score, HE staining): obvious improvement effect
[2]
  inhibition of hERG potassium current: weak inhibition
